Assay [1] has as its system Lactobacillus plantarum PN0512. Kind of assay: Growth of L. plantarum PN0512 in the presence of butanols at different temperatures (OD600 for six hours). The assay is classed as cell-based. Also noted: key to Growth in the presence of 1-butanol / Growth in the presence of isobutanol / Growth in the presence of 2-butanol: “+” = growth observed as an increase in OD600.; “−” = no growth observed, i.e. no change in OD600.

A further assay concerns E. coli strain BW25113. In words: Survival of E. coli after 30 min MEK shock (colony counts). Conditions: for % Survival at 28° C. / % Survival at 37° C.: average of duplicate experiments. The class given is cell-based, Escherichia coli.

Molecules are shown by their SMILES.

Regarding `CCC(C)O` (stereo not drawn) [2-butanol], the “Growth in the presence of 2-butanol” value is recorded as “+” in assay [1] (1.8 % w/v, 37° C.); “+” in assay [1] (2.1 % w/v, 37° C.); “+” in assay [1] (2.9 % w/v, 25° C.); “+” in assay [1] (2.9 % w/v, 30° C.); “+” in assay [1] (2.9 % w/v, 37° C.); “+” in assay [1] (3.1 % w/v, 37° C.). In addition, the “Growth in the presence of 2-butanol” value in assay [1] (3.6 % w/v, 37° C.) is given as “+”; in assay [1] (3.8 % w/v, 25° C.), “+”; in assay [1] (3.8 % w/v, 30° C.) it was “+”; in assay [1] (3.8 % w/v, 37° C.) it was “+”; in assay [1] (4.0 % w/v, 30° C.), “+”; in assay [1] (4.3 % w/v, 25° C.), “+”. Also, the “Growth in the presence of 2-butanol” value in assay [1] (4.3 % w/v, 30° C.) is “+”; in assay [1] (4.3 % w/v, 37° C.) it was “+”; in assay [1] (4.7 % w/v, 25° C.), “+”; in assay [1] (4.7 % w/v, 30° C.) it was “+”; in assay [1] (4.7 % w/v, 37° C.) it was “−”; in assay [1] (4.9 % w/v, 25° C.) it was “+”. For the same molecule, the “Growth in the presence of 2-butanol” value in assay [1] (4.9 % w/v, 30° C.) is “−”; in assay [1] (5.2 % w/v, 25° C.), “+”; in assay [1] (5.2 % w/v, 37° C.), “−”; in assay [1] (5.6 % w/v, 25° C.), “−”; in assay [1] (5.6 % w/v, 37° C.), “−”; in assay [1] (6.0 % w/v, 37° C.), “−”. Moreover, the “Growth in the presence of 2-butanol” value in assay [1] (6.4 % w/v, 37° C.) is “−”; in assay [1] (7.3 % w/v, 37° C.), “−”; in assay [1] ([…] w/v, 30° C.) it was “+”. The “concentration in which growth was observed” value came to 5.2% in assay [1] (25° C.), 4.7% in assay [1] (30° C.) and 4.3% in assay [1] (37° C.). Moreover, the “concentration in which growth was not observed” value is given as 4.9% in assay [1] (30° C.) and 4.5% in assay [1] (37° C.).

Take `CCC(C)=O` [MEK, 2-butanone]: the “% Survival at 28° C.” value in the assay on E. coli strain BW25113 (MEK 4 % w/v) was 100%; in the assay with E. coli strain BW25113 (MEK 6 % w/v), 100%; with E. coli strain BW25113 (MEK 8 % w/v), 0.002%. Besides, the “% Survival at 37° C.” value amounted to 100% in the assay with E. coli strain BW25113 (MEK 4 % w/v), 0% in the assay on E. coli strain BW25113 (MEK 6 % w/v) and 0% with E. coli strain BW25113 (MEK 8 % w/v). Moreover, the “concentration with full survival” value is given as 6 % w/v in the assay on E. coli strain BW25113 (exposure at 28° C.) and 4 % w/v in the assay with E. coli strain BW25113 (exposure at 37° C.). Moreover, the “concentration with no survival” value in the assay with E. coli strain BW25113 (exposure at 37° C.) is on record as 6 % w/v.

On to `CC(C)CO` [isobutanol], for which the “Growth in the presence of isobutanol” value in assay [1] (3.3 % w/v, 30° C.) was “−”.

The record behind these values is patent publication US20130217060A1 (Butamax(TM) Advanced Biofuels LLC, priority 2007, published 2013).
